The test system of series [1] is protein pool extracted from murine liver. As to the kind of experiment: In vitro enzyme hydrolysis assay, thin-layer chromatography detection. Type of series: in vitro ADME, mouse. As to conditions: 1 mg murine liver protein extract, 50 μg compound, 25° C. The method, then:
In view of what found from the results of Example 29, an in vitro enzyme hydrolysis assay was carried out with the aim of further clarifying which of the synthesized derivatives behaved as alpha-lipoic acid precursors, i.e. as prodrugs able to release alpha-lipoic acid by hydrolysis.
A protein pool extracted from murine liver, containing enzymes able to promote hydrolysis of the compounds of the invention, was used to reintroduce in vitro the hydrolytic activity previously described in the pharmacokinetic studies.
Methodology • The liver of a wild-type mouse was removed; excess blood was removed by washing in phosphate buffer saline (PBS); • Said liver was transferred into a homogenizer with a sufficient amount of lysis buffer (50 mM Tris HCl pH 7.5-8.0; 150 mM NaCl; 5 mM EGTA pH 7.5-8.0; 50 mM NaF pH 8.0; 10% (v/v) glycerol; 1.5 mM MgCl2, 1% Triton X-100) enriched with protease and phosphatase inhibitors (Protease Inhibitor Cocktail; Sigma-Aldrich). 15-20 impacts were applied by the pestle in order to obtain a homogeneous solution; • The entire mixture was left under agitation at +4° C. for 1 hour; after centrifugation at 14000 rpm, the supernatant containing the extracted proteins was recovered; • The amount of extracted protein was determined using the Bradford assay; • The enzymatic hydrolysis reaction was carried out: 1 mg of protein extract for hydrolysing 50 μg of synthesized compound (dissolved in DMSO); 1, 3 or 24 hours at 25° C. under agitation; • The digestion product(s) was/were detected using thin-layer chromatography: mobile phase (60:40:1 of ethyl acetate; n-hexane; acetic acid); silica plate (Sigma-Aldrich); phosphomolybdic reagent; • The digestion products were analyzed and compared with (R)-α-LA (Sigma-Aldrich), and with the non-hydrolysed compound of the invention.
It was, therefore, possible to detect (R)-alpha-lipoic acid as the hydrolysis product and to differentiate it from the enantiomers of the invention.

The nature of series [2]: Pharmacokinetic study in rats after oral administration of a single dose, HPLC-MS of plasma. Type of series: in vivo. As to conditions: rat. The protocol:
The bioavailability of some compounds synthesized (Examples 1a, 2, 2a, 3, 3a, 10, 15a, 16a and 24) was studied in rats after oral administration of a single dose (48.5 μmol/kg) and compared with the reference (R)- or (RS)-α-LA.
Each treatment was carried out on groups of 6 male rats (Sprague-Dawley SD rat) per compound. At regular times, blood withdrawals were carried out for the measurement by HPLC-MS of the concentration of plasmatic α-LA (FIGS. 5, 7, 9) and of the residual compound administered (FIGS. 6, 8).

The test system of series [3] is HepG2 cells. As to the kind of experiment: Variation in NADPH levels (total NADPH/NADP ratio), spectrophotometric kit. Type of series: cell-based, human. As to conditions: HepG2 cells, 5, 10, 100 and 500 μM, 72 hours. The text has this:
Although it is known that under hyperglycemic conditions α-LA induces AMPK activation in hepatic cells, the molecular mechanisms responsible for this biochemical process are not yet known. As envisaged in the description, the inventors of the present invention have advanced the hypothesis that AMPK activation by α-LA is the result of changes in the amount of NADH and NADHP present in cells, due to the interference of α-LA and/or its analogous derivatives in the oxidation-reduction processes. To verify this hypothesis, use was made of commercial kits (by Valter Occhiena) able to analyze the variations in the cellular amounts of NAD(P)H relative to total NAD(P), in the presence of increasing concentrations of the compounds under analysis (total NAD=NADH+NAD^+; total NADP=NADPH+NADP^+).

For `O=C(CCCC[C@@H]1CCSS1)NC1CCCC1` [Example 14, (R)-5-[1,2]dithiolan-3-yl-pentanoic acid cyclopentylamide], in series [1], the “amount of (R)-alpha-lipoic acid released after 24 h (FIG. 3)” value (shortened to “amount of (R)-alpha-lipoic acid released”) is reported as “reduced release” and the “enzymatic hydrolysis after 24 h (FIG. 3)” value is given as “partial hydrolization”. In the same order, the values of `C=CCCNC(=O)CCCC[C@@H]1CCSS1` [Example 25, (R)-5-[1,2]dithiolan-3-yl-pentanoic acid N-(buten-3-yl)amide] are “very considerable amount” and “not completely hydrolysed”.

For `O=C(CCCC[C@@H]1CCSS1)NCCCN1CCOCC1` [Example 3, (R)-5-[1,2]dithiolan-3-yl-pentanoic acid(3-morpholin-4-yl-propyl)-amide], the “released alpha-lipoic acid and compound itself in plasma, any withdrawal time” value in series [2] (single dose 48.5 μmol/kg) is “neither released alpha-lipoic acid nor the compound itself was detected”. As to `CCCCNC(=O)CCCC[C@@H]1CCSS1` [Example 2, (R)-5-[1,2]dithiolan-3-yl-pentanoic acid butylamide], in series [1], the “amount of (R)-alpha-lipoic acid released” value is “very considerable amount” and the “enzymatic hydrolysis after 24 h (FIG. 3)” value is recorded as “not completely hydrolysed”. Moreover, the “concentration of alpha-lipoic acid in plasma after 30 minutes from administration (FIG. 9)” value in series [2] (shorter treatment intervals (5-30 minutes)) was “significant concentration”. The “hydrolysis profile in vivo compared with the corresponding racemic compound (FIG. 7 vs FIG. 5)” value in series [2] (single dose 48.5 μmol/kg) was “more linear hydrolysis profile”.

In the case of `CCCCCCCNC(=O)CCCC[C@@H]1CCSS1` [Example 20, (R)-5-[1,2]dithiolan-3-yl-pentanoic acid n-heptylamide], the “enzymatic hydrolysis after 24 h (FIG. 3)” value in series [1] is recorded as “remained essentially unaltered”. On the same count and under the same terms, for `CCC(CC)NC(=O)CCCC[C@@H]1CCSS1` [Example 21, (R)-5-[1,2]dithiolan-3-yl-pentanoic acid pentan-3-ylamide] the value was “remained essentially unaltered”.

Take `O=C(CCCC[C@@H]1CCSS1)NCc1ccccc1` [Example 22, (R)-5-[1,2]dithiolan-3-yl-pentanoic acid N-benzylamide]: in series [1], the “amount of (R)-alpha-lipoic acid released” value is on record as “very considerable amount” and the “enzymatic hydrolysis after 24 h (FIG. 3)” value was “not completely hydrolysed”. `CCCNC(=O)CCCC[C@@H]1CCSS1` [Example 7, (R)-5-[1,2]dithiolan-3-yl-pentanoic acid propylamide]: in series [1], the “amount of (R)-alpha-lipoic acid released” value was “reduced release” and the “enzymatic hydrolysis after 24 h (FIG. 3)” value is given as “partial hydrolization”. The like results for `O=C(CCCC[C@@H]1CCSS1)NCCCc1ccccc1` [Example 12, (R)-5-[1,2]dithiolan-3-yl-pentanoic acid(3-phenyl-propyl)-amide] were, in that order, “reduced release” and “partial hydrolization”.

Turning to `CC(OC(=O)CCCC[C@@H]1CCSS1)OC(=O)C(C)(C)C` (stereo partly drawn) [Example 18, (R)-5-[1,2]dithiolan-3-yl-pentanoic acid 2,2-dimethyl-propionyloxyethyl ester], in series [1], the “enzymatic hydrolysis after 1 h (FIG. 2)” value is reported as “partial hydrolization” and the “enzymatic hydrolysis after 3 h (FIG. 2)” value is “completely hydrolyzed”. Regarding `CC(=O)NCCNC(=O)CCCC[C@@H]1CCSS1` [Example 10, (R)-5-[1,2]dithiolan-3-yl-pentanoic acid(2-acetylamino-ethyl)-amide], the melting point is 144.6 to 145.8 °C.

In the case of `CC(=O)OC(C)OC(=O)CCCC[C@@H]1CCSS1` (stereo partly drawn) [Example 17, (R)-5-[1,2]dithiolan-3-yl-pentanoic acid 1-acetoxy-ethyl ester], in series [1], the “enzymatic hydrolysis after 1 h (FIG. 2)” value was “partial hydrolization” and the “enzymatic hydrolysis after 3 h (FIG. 2)” value is reported as “completely hydrolyzed”. For `COc1ccc(CNC(=O)CCCC[C@@H]2CCSS2)cc1OC(C)=O` [Example 27, (R)-5-[1,2]dithiolan-3-yl-pentanoic acid N-(3-acetoxy-4methoxybenzyl)amide], in series [1], the “amount of (R)-alpha-lipoic acid released” value is recorded as “very considerable amount” and the “enzymatic hydrolysis after 24 h (FIG. 3)” value is on record as “not completely hydrolysed”. Turning to `CCCCCNC(=O)CCCC[C@@H]1CCSS1` [Example 19, (R)-5-[1,2]dithiolan-3-yl-pentanoic acid n-pentylamide], in series [1], the “amount of (R)-alpha-lipoic acid released” value is reported as “reduced release” and the “enzymatic hydrolysis after 24 h (FIG. 3)” value is “partial hydrolization”. For `CC(C)NC(=O)CCCC[C@@H]1CCSS1` [Example 8, (R)-5-[1,2]dithiolan-3-yl-pentanoic acid isopropylamide], the “effect on NADPH levels (FIG. 11)” value in series [3] is “influenced NADPH levels, in a dose dependent manner”. Further, in series [1], the “amount of (R)-alpha-lipoic acid released” value is “reduced release” and the “enzymatic hydrolysis after 24 h (FIG. 3)” value was “partial hydrolization”.

For `O=C(CCCC[C@@H]1CCSS1)NCC1CC1` [Example 24, (R)-5-[1,2]dithiolan-3-yl-pentanoic acid N-(cyclopropylmethyl)amide], in series [1], the “amount of (R)-alpha-lipoic acid released” value is given as “very considerable amount” and the “enzymatic hydrolysis after 24 h (FIG. 3)” value is given as “not completely hydrolysed”. In the case of `CCCC(=O)OCOC(=O)CCCC[C@@H]1CCSS1` [Example 16, (R)-5-[1,2]dithiolan-3-yl-pentanoic acid butyryloxymethyl ester], the “enzymatic hydrolysis after 1 h (FIG. 2)” value in series [1] is reported as “completely hydrolyzed”. Same read-out and setting: for `CC(C)(C)C(=O)OCOC(=O)CCCC[C@@H]1CCSS1` [Example 15, (R)-5-[1,2]dithiolan-3-yl-pentanoic acid 2,2-dimethyl-propionyloxymethyl ester] the value was “completely hydrolyzed”. For `CCCC(C)NC(=O)CCCC[C@@H]1CCSS1` (stereo partly drawn) [Example 5, (R)-5-[1,2]dithiolan-3-yl-pentanoic acid(1-methyl-butyl)-amide], the “enzymatic hydrolysis after 24 h (FIG. 3)” value in series [1] is recorded as “remained essentially unaltered”. Still for that read-out and setting: under `O=C(CCCC[C@@H]1CCSS1)N1CCOCC1` [Example 1, (R)-1-morpholin-4-yl-5-[1,2]dithiolan-3-yl-pentan-1-one] stands “remained essentially unaltered”. As to `O=C(CCCC[C@@H]1CCSS1)NCCc1ccccc1` [Example 11, (R)-5-[1,2]dithiolan-3-yl-pentanoic acid phenethyl-amide], in series [1], the “amount of (R)-alpha-lipoic acid released” value is recorded as “reduced release” and the “enzymatic hydrolysis after 24 h (FIG. 3)” value is reported as “partial hydrolization”. As for `CC1CCN(C(=O)CCCC[C@@H]2CCSS2)CC1` [Example 28, (R)-5-[1,2]dithiolan-3-yl-pentanoic acid 1-(4-methylpiperidin-1-yl)amide], the “enzymatic hydrolysis after 24 h (FIG. 3)” value in series [1] is “remained essentially unaltered”. For the compound `O=C(CCCC[C@@H]1CCSS1)NCCCCc1ccccc1` [Example 13, (R)-5-[1,2]dithiolan-3-yl-pentanoic acid(4-phenyl-butyl)-amide], in series [1], the “amount of (R)-alpha-lipoic acid released” value is “reduced release” and the “enzymatic hydrolysis after 24 h (FIG. 3)” value is “partial hydrolization”. Regarding `CNC(=O)CCCC[C@@H]1CCSS1` [Example 6, (R)-5-[1,2]dithiolan-3-yl-pentanoic acid methylamide], in series [1], the “amount of (R)-alpha-lipoic acid released” value was “reduced release” and the “enzymatic hydrolysis after 24 h (FIG. 3)” value is “partial hydrolization”.

`CC(=O)NCCNC(=O)CCCCC1CCSS1` (racemic) [Example 10a, 5-[1,2]dithiolan-3-yl-pentanoic acid(2-acetylamino-ethyl)-amide] had a melting point of 144.6 to 145.8 °C. With `COc1ccc(CNC(=O)CCCC[C@@H]2CCSS2)cc1O` [Example 23, (R)-5-[1,2]dithiolan-3-yl-pentanoic acid N-(3-hydroxy-4methoxybenzyl)amide], in series [1], the “amount of (R)-alpha-lipoic acid released” value is “very considerable amount” and the “enzymatic hydrolysis after 24 h (FIG. 3)” value was “not completely hydrolysed”.

For the origin of these results see patent publication US20110212954A1, “ALPHA-LIPOIC ACID DERIVATIVES AND THEIR USE IN DRUG PREPARATION” (priority 2008, published 2011).
